Experimental data reported in patent publication US20140243302A1, “BRIDGED BICYCLIC COMPOUNDS FOR THE TREATMENT OF BACTERIAL INFECTIONS” (priority 2011, published 2014).
Values after ≈ are worked out from the molar mass of the structure shown.

Tested on: Staphylococcus aureus Smith
Assay: MIC assay, modified agar dilution (CLSI), S. aureus Smith
Assay type: cell-based
Conditions: Staphylococcus aureus, agar dilution, 35° C., 16-20 hr; lowest concentration that completely inhibited growth; read-out: S_aureus_Smith_WT_MIC
Method in brief: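 Strains were spotted at about 1×10^4 CFU onto compound-containing Mueller Hinton agar (two-fold series, 128-0.001 μg/mL), horse blood 5% added for pneumococcus and enterococcus. MIC read after 16-20 hr at 35 °C, following a modified CLSI agar dilution method.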

Row | Compound | MIC
1 | COc1ccc2ncc(F)c(CCC34CCC(NCc5nc6cccnc6n(C)c5=O)(CC3)CO4)c2n1.Cl [Example 108, 2-((1-(2-(3-Fluoro-6-methoxy-1,5-naphthyridin-4-yl)ethyl)-2-oxabicyclo[2.2.2]octan-4-ylamino)methyl)-4-methylpyrido[3,2-b]pyrazin-3(4H)-one Hydrochloride] | > 8 µg/mL
2 | Cl.O=C1COc2ccc(CNC34CCC(CCN5C(=O)COc6cccnc65)(CC3)OC4)nc2N1 [Example 109, 6-((1-(2-(3-Oxo-2H-pyrido[3,2-b][1,4]oxazin-4(3H)-yl)ethyl)-2-oxabicyclo[2.2.2]octan-4-ylamino)methyl)-2H-pyrido[3,2-b][1,4]oxazin-3(4H)-one Hydrochloride] | 8 µg/mL
3 | Cc1nccc2c1ccc(=O)n2CCC12CCC(NCc3ccc4c(n3)NC(=O)CO4)(CC1)CO2 [Example 110, 6-((1-(2-(5-Methyl-2-oxo-1,6-naphthyridin-1(2H)-yl)ethyl)-2-oxabicyclo[2.2.2]octan-4-ylamino)methyl)-2H-pyrido[3,2-b][1,4]oxazin-3(4H)-one] | 4 µg/mL (≈ 8.41 µM)
4 | Cc1ccc2ccc(=O)n(CCC34CCC(NCc5ccc6c(n5)NC(=O)CO6)(CC3)CO4)c2n1.Cl [Example 111, 6-((1-(2-(7-Methyl-2-oxo-1,8-naphthyridin-1(2H)-yl)ethyl)-2-oxabicyclo[2.2.2]octan-4-ylamino)methyl)-2H-pyrido[3,2-b][1,4]oxazin-3(4H)-one Hydrochloride] | 0.125 µg/mL
5 | O=C1COc2ccc(CNC34CCC(CCn5c(=O)c6cccn6c6c(F)cccc65)(CC3)OC4)nc2N1 [Example 112, 6-((1-(2-(9-Fluoro-4-oxopyrrolo[1,2-a]quinoxalin-5(4H)-yl)ethyl)-2-oxabicyclo[2.2.2]octan-4-ylamino)methyl)-2H-pyrido[3,2-b][1,4]oxazin-3(4H)-one] | 1 µg/mL (≈ 1.93 µM)
6 | Cc1ccc2ccc(OCCC34CCC(NCc5ccc6c(n5)NC(=O)CO6)(CC3)CO4)nc2n1 [Example 113, 6-((1-(2-(7-Methyl-1,8-naphthyridin-2-yloxy)ethyl)-2-oxabicyclo[2.2.2]octan-4-ylamino)methyl)-2H-pyrido[3,2-b][1,4]oxazin-3(4H)-one] | 16 µg/mL (≈ 33.6 µM)
7 | Cc1nc2ccccc2n(CCC23CCC(NCc4ccc5c(n4)NC(=O)CO5)(CC2)CO3)c1=O [Example 114, 6-((1-(2-(3-Methyl-2-oxoquinoxalin-1(2H)-yl)ethyl)-2-oxabicyclo[2.2.2]octan-4-ylamino)methyl)-2H-pyrido[3,2-b][1,4]oxazin-3(4H)-one] | 4 µg/mL (≈ 8.41 µM)
8 | COc1cc2ncc(=O)n(CCC34CCC(NCc5ccc6c(n5)NC(=O)CO6)(CC3)CO4)c2cc1OC [Example 115, 6-((1-(2-(6,7-Dimethoxy-2-oxoquinoxalin-1(2H)-yl)ethyl)-2-oxabicyclo[2.2.2]octan-4-ylamino)methyl)-2H-pyrido[3,2-b][1,4]oxazin-3(4H)-one] | 0.5 µg/mL (≈ 0.959 µM)
9 | O=C1COc2ccc(CNC34CCC(CCn5c(=O)ccc6cccnc65)(CC3)OC4)nc2N1 [Example 116, 6-((1-(2-(2-Oxo-1,8-naphthyridin-1(2H)-yl)ethyl)-2-oxabicyclo[2.2.2]octan-4-ylamino)methyl)-2H-pyrido[3,2-b][1,4]oxazin-3(4H)-one] | 16 µg/mL (≈ 34.7 µM)
10 | Cc1nnc2c(=O)n(CCC34CCC(NCc5ccc6c(n5)NC(=O)CO6)(CC3)CO4)c3ccccc3n12 [Example 117, 6-((1-(2-(1-Methyl-4-oxo-[1,2,4]triazolo[4,3-a]quinoxalin-5(4H)-yl)ethyl)-2-oxabicyclo[2.2.2]octan-4-ylamino)methyl)-2H-pyrido[3,2-b][1,4]oxazin-3(4H)-one] | 64 µg/mL (≈ 124 µM)
11 | O=C1COc2ccc(CNC34CCC(CCN5C(=O)N6CCCN=C6c6ccccc65)(CC3)OC4)nc2N1 [Example 118, 6-(((1-(2-(6-Oxo-3,4-dihydro-2H-pyrimido[1,2-c]quinazolin-7(6H)-yl)ethyl)-2-oxabicyclo[2.2.2]octan-4-yl)amino)methyl)-2H-pyrido[3,2-b][1,4]oxazin-3(4H)-one] | 32 µg/mL (≈ 61.9 µM)
12 | O=C1COc2ccc(CNC34CCC(CCn5c(=O)ccc6ncc(F)cc65)(CC3)OC4)nc2N1 [Example 119, 6-((1-(2-(7-Fluoro-2-oxo-1,5-naphthyridin-1(2H)-yl)ethyl)-2-oxabicyclo[2.2.2]octan-4-ylamino)methyl)-2H-pyrido[3,2-b][1,4]oxazin-3(4H)-one] | 0.125 µg/mL (≈ 0.261 µM)
13 | COc1cnc2ccc(=O)n(CCC34CCC(NCc5ccc6c(n5)NC(=O)CO6)(CC3)CO4)c2c1 [Example 120, 6-(((1-(2-(7-Methoxy-2-oxo-1,5-naphthyridin-1(2H)-yl)ethyl)-2-oxabicyclo[2.2.2]octan-4-yl)amino)methyl)-2H-pyrido[3,2-b][1,4]oxazin-3(4H)-one] | 0.016 µg/mL (≈ 0.0326 µM)
14 | COc1cnc2ncc(=O)n(CCC34CCC(NCc5ccc6c(n5)NC(=O)CO6)(CC3)CO4)c2c1 [Example 121, 6-(((1-(2-(7-Methoxy-2-oxopyrido[2,3-b]pyrazin-1(2H)-yl)ethyl)-2-oxabicyclo[2.2.2]octan-4-yl)amino)methyl)-2H-pyrido[3,2-b][1,4]oxazin-3(4H)-one] | 0.016 µg/mL (≈ 0.0325 µM)
15 | COc1ccc2ncc(=O)n(CCC34CCC(NCc5cc6c(cn5)OCCO6)(CC3)CO4)c2n1 [Example 122, 4-(2-(4-((2,3-Dihydro-[1,4]dioxino[2,3-c]pyridin-7-yl)methylamino)-2-oxabicyclo[2.2.2]octan-1-yl)ethyl)-6-methoxypyrido[3,2-b]pyrazin-3(4H)-one] | 0.063 µg/mL (≈ 0.131 µM)
16 | COc1ccc2ncc(=O)n(CCC34CCC(NCc5cc6ccccc6n(C)c5=O)(CC3)CO4)c2n1 [Example 123, 6-Methoxy-4-(2-(4-((1-methyl-2-oxo-1,2-dihydroquinolin-3-yl)methylamino)-2-oxabicyclo[2.2.2]octan-1-yl)ethyl)pyrido[3,2-b]pyrazin-3(4H)-one] | 1 µg/mL (≈ 1.99 µM)
17 | COc1ccc2ncc(O)c(CCC34CCC(NCc5ccc6c(n5)NC(=O)CO6)(CC3)CO4)c2n1 [Example 124, 6-(((1-(2-(3-Hydroxy-6-methoxy-1,5-naphthyridin-4-yl)ethyl)-2-oxabicyclo[2.2.2]octan-4-yl)amino)methyl)-2H-pyrido[3,2-b][1,4]oxazin-3(4H)-one] | 0.031 µg/mL (≈ 0.0631 µM)
18 | COc1ccc2ncc(F)c(CCC34CCC(NCc5ccc6c(n5)NC(=O)CO6)(CC3)CO4)c2c1.Cl [Example 125, 6-((1-(2-(3-Fluoro-6-methoxyquinolin-4-yl)ethyl)-2-oxabicyclo[2.2.2]octan-4-ylamino)methyl)-2H-pyrido[3,2-b][1,4]oxazin-3(4H)-one Hydrochloride] | 0.016 µg/mL
19 | Cc1ccc2ncc(=O)n(CCC34CCC(NCc5ccc6c(n5)NC(=O)CO6)(CC3)CO4)c2n1 [Example 126, 6-(((1-(2-(6-Methyl-3-oxopyrido[2,3-b]pyrazin-4(3H)-yl)ethyl)-2-oxabicyclo[2.2.2]octan-4-yl)amino)methyl)-2H-pyrido[3,2-b][1,4]oxazin-3(4H)-one] | 0.25 µg/mL (≈ 0.525 µM)
20 | COC(=O)c1cnc2ccc(=O)n(CCC34CCC(NCc5ccc6c(n5)NC(=O)CO6)(CC3)CO4)c2c1.Cl [Example 127, Methyl 6-Oxo-5-(2-(4-((3-oxo-3,4-dihydro-2H-pyrido[3,2-b][1,4]oxazin-6-yl)methylamino)-2-oxabicyclo[2.2.2]octan-1-yl)ethyl)-5,6-dihydro-1,5-naphthyridine-3-carboxylate Hydrochloride] | 0.25 µg/mL
21 | N#Cc1cnc2ccc(=O)n(CCC34CCC(NCc5ccc6c(n5)NC(=O)CO6)(CC3)CO4)c2c1 [Example 128, 6-Oxo-5-(2-(4-((3-oxo-3,4-dihydro-2H-pyrido[3,2-b][1,4]oxazin-6-yl)methylamino)-2-oxabicyclo[2.2.2]octan-1-yl)ethyl)-5,6-dihydro-1,5-naphthyridine-3-carbonitrile] | 0.063 µg/mL (≈ 0.129 µM)
22 | O=C1COc2ccc(CNC34CCC(CCn5c(=O)ccc6ncc(Cl)cc65)(CC3)OC4)nc2N1 [Example 129, 6-((1-(2-(7-Chloro-2-oxo-1,5-naphthyridin-1(2H)-yl)ethyl)-2-oxabicyclo[2.2.2]octan-4-ylamino)methyl)-2H-pyrido[3,2-b][1,4]oxazin-3(4H)-one] | 0.063 µg/mL (≈ 0.127 µM)
23 | O=C1COc2ccc(CNC34CCC(CCn5c(=O)ccc6ncc(Br)cc65)(CC3)OC4)nc2N1 [Example 130, 6-((1-(2-(7-Bromo-2-oxo-1,5-naphthyridin-1(2H)-yl)ethyl)-2-oxabicyclo[2.2.2]octan-4-ylamino)methyl)-2H-pyrido[3,2-b][1,4]oxazin-3(4H)-one] | 0.063 µg/mL (≈ 0.117 µM)
24 | COc1ccc2ccc(=O)n(CCC34CCC(NCc5ccc6c(n5)NC(=O)CO6)(CC3)CO4)c2n1.Cl [Example 131, 6-((1-(2-(7-Methoxy-2-oxo-1,8-naphthyridin-1(2H)-yl)ethyl)-2-oxabicyclo[2.2.2]octan-4-ylamino)methyl)-2H-pyrido[3,2-b][1,4]oxazin-3(4H)-one Hydrochloride] | 0.016 µg/mL
25 | COc1ccc2ncc(F)c(NCC34CCC(NCc5ccc6c(n5)NC(=O)CO6)(CC3)CO4)c2n1 [Example 136, 6-({1-[(3-Fluoro-6-methoxy-[1,5]naphthyridin-4-ylamino)-methyl]-2-oxa-bicyclo[2.2.2]oct-4-ylamino}-methyl)-4H-pyrido[3,2-b][1,4]oxazin-3-one] | 0.25 µg/mL (≈ 0.506 µM)
26 | CCOc1cc(C)c2ncc(F)c(CCC34CCC(NCc5ccc6c(n5)NC(=O)CO6)(CC3)CO4)c2n1 [Example 137, 6-[({1-[2-(6-Ethoxy-3-fluoro-8-methyl-1,5-naphthyridin-4-yl)ethyl]-2-oxabicyclo[2.2.2]oct-4-yl}amino)methyl]-2H-pyrido[3,2-b][1,4]oxazin-3(4H)-one] | 0.063 µg/mL (≈ 0.121 µM)
27 | COc1ccc2ncc(F)c(CC(O)(C(F)(F)F)C34CCC(NCc5ccc6c(n5)NC(=O)CO6)(CC3)CO4)c2n1 (stereo not drawn) [Example 138, 6-[({1-[1,1,1-Trifluoro-3-(3-fluoro-6-methoxy-1,5-naphthyridin-4-yl)-2-hydroxypropan-2-yl]-2-oxabicyclo[2.2.2]oct-4-yl}amino)methyl]-2H-pyrido[3,2-b][1,4]oxazin-3(4H)-one] | 0.5 µg/mL (≈ 0.866 µM)
